Laboratory results taken from US7179800B2 (priority 2002, dated 2007).
“And” between values parts separate entries of the source, which are not always exact repeats. Equal entries are not always repeated.

Key:
Male ICR mice [1] = assay: Suppression of spontaneous activity (SA) in mice; assay type: in vivo, mouse
Description: (§1) Male ICR mice (25–32 g), obtained from Harlan (Dublin, Va.), were housed in groups of five. All animals were kept in a temperature-controlled (20–22° C.) environment with a 12-hour light-dark cycle (lights on at 7 a.m.). Separate mice were used for testing each drug dose in the in vivo behavioral procedures. Brain tissue for binding studies was obtained from male Sprague-Dawley rats (150–200 g) purchased from Harlan Laboratories (Dublin, Va.).
(§2) Measurement of spontaneous activity in mice occurred in standard activity chambers interfaced with a Digiscan Animal Activity Monitor (Omnitech Electronics, Inc., Columbus, Ohio). A standard tail-flick apparatus and a digital thermometer (Fisher Scientific, Pittsburgh, Pa.) were used to measure antinociception and rectal temperature, respectively
(§3) Resorcinols were synthesized in our labs (Organix, Inc., Woburn, Mass.) according to the procedure specified below and were suspended in a vehicle of absolute ethanol, Emulphor-620 (Rhone-Poulenc, Inc., Princeton, N.J.), and saline in a ratio of 1:1:18. Drugs were administered to the mice intravenously (i.v.) in the tail vein at a volume of 0.1 ml/10 g.
(§4) Prior to testing in the behavioral procedures, mice were acclimated to the experimental setting (ambient temperature 22–24° C.) overnight. Pre-injection control values were determined for rectal temperature and tail-flick latency (in sec). […] Tail-flick latency was measured at 20 min post-injection. Maximum latency of 10 sec was used. Antinociception was calculated as percent of maximum possible effect {% MPE=[(test−control latency)/(10-control)]×100}. Control latencies typically ranged from 1.5 to 4.0 sec. At 30 min post-injection, rectal temperature was measured This value was expressed as the difference between control temperature (before injection) and temperatures following drug administration (° C.). Different mice (n=5–6 per dose) were tested for each dose of each compound. Each mouse was tested in each of the 3 procedures.
(§5) Based on data obtained from numerous previous studies with cannabinoids, maximal cannabinoid effects in each procedure were estimated as follows: 90% inhibition of spontaneous activity, 100% MPE in the tail flick procedure, and −6° C. change in rectal temperature. ED50's were defined as the dose at which half maximal effect occurred. For drugs that produced one or more cannabinoid effect, ED50's were calculated separately using least-squares linear regression on the linear part of the dose-effect curve for each measure in the mouse tetrad, plotted against log10 transformation of the dose. For the purposes of potency comparison, potencies were expressed as μmol/kg.

Male ICR mice [2] = assay: Tail-flick antinociception (TF, % MPE) in mice; assay type: in vivo, mouse; details: for T.F. % effect at dose: Table 6, @ 30 (mg/kg)
Description: as §1, §2, §3, §4, §5

Male ICR mice [3] = assay: Change in rectal temperature (RT) in mice; assay type: in vivo, mouse; details: for R.T. effect at dose: Table 6, @ 30 (mg/kg)
Description: as §1, §2, §3, §4, §5

CB2 receptor = target: T1, CB2 receptor (Homo sapiens, UniProt P34972); assay: CB2 binding procedure: displacement of [3H]CP-55,940 from membranes of transfected CHO cells; details: for CB1/CB2 (ratio of Ki): CB1 Ki divided by CB2 Ki; for Ki: means ± SEM, [3H]CP-55,940, transfected CHO cell membranes, read-out: Ki (nM) CB2
T1 construct: expressed in transfected cells; host or cells: CHO cells, G418-selected transfected line
T1 sequence (P34972 whole entry): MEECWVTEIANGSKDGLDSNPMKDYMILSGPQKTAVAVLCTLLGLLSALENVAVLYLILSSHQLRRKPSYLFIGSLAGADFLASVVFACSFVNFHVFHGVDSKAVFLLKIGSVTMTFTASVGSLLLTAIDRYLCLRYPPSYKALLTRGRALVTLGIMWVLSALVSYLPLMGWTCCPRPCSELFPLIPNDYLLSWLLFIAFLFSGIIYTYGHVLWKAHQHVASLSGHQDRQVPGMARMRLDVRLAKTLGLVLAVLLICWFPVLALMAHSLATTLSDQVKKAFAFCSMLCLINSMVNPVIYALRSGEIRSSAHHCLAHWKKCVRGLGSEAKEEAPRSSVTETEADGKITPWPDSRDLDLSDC
Description: Membranes for CB2 binding were obtained from CHO cells. The transfected cell line was maintained in Dublecco's Modified Eagle Medium (Gibco BRL, Grand Island, N.Y.) with 10% fetal clone II (HyClone Laboratories, Inc., Logan, Utah) plus 0.3 to 0.5 mg/ml G418 (to maintain selective pressure) under 5% CO2 at 37% C. Cells were harvested with 1 mM EDTA in phosphate-buffered saline and were centrifuged at 1000×g for 5 min at 4% C. The supernatant was saved and the P1 pellet was resuspended in centrifugation buffer. Homogenization and centrifugation were repeated twice and the combined supernatant fractions were centrifuged at 40,000×g for 30 min at 4% C. The P2 pellet was resuspended in centrifugation buffer 2 (Tris HCl, 50 mM; EDTA, 1 mM; and MgCl2, 3 mM, pH 7.4) to a protein concentration of approximately 2 mg/ml. Protein concentrations were determined by the method of Bradford (1976) using Bio-Rad Protein Assay (Bio-Rad, Richmond, Calif.) and BSA standards (fatty acid free, Sigma Chemical Co., St. Louis, Mo.). The membrane preparation was divided into amounts convenient for binding assays and frozen rapidly in dry ice and stored at −80% C.
Binding was initiated by the addition of 50 μg of quickly thawed P2 membranes to test tubes containing [^3H]CP-55,940 (final reaction concentration 0.5 nM), an appropriate concentration of unlabeled CP-55,940 or test drug, and sufficient quantity of assay buffer (50 mM Tris-HCl, 1 mM EDTA, 3 mM MgCl2, 5 mg/ml bovine serum albumin, pH 7.4) to bring the total incubation volume to 0.5 ml. Concentration of [^3H]CP-55,940 in saturation studies ranged from 50 to 10,000 pM. Nonspecific binding was determined by the addition of 1 μM unlabeled CP-55,940. CP-55,940 and all cannabinoid analogs were prepared by suspension in assay buffer from a 1 mg/ml ethanolic stock without evaporation of the ethanol (final concentration of no more than 0.4%). In competition studies, analog concentrations ranged from 0.1 nM to 10 μM. After incubation at 30% C for 1 hr, binding was terminated by the addition of 2 ml of ice-cold wash buffer (50 mM Tris-HCl and 1 mg/ml BSA) and vacuum filtration through pre-treated filters in a 12-well sampling manifold (Millipore, Bedford, Mass.). Reaction vessels were washed once with 2 ml of ice-cold wash buffer. Filters were placed into 7-ml plastic scintillation vials (RPI Corp., Mount Prospect, Ill.) with 4 ml of Budget-Solve (RPI Corp.). After shaking for 30 min, the radioactivity present was determined by liquid scintillation spectrometry. Three reaction vessels were used for each drug concentration in each assay. The results represent the combined data of three independent experiments. All assays were performed in siliconized test tubes, which were prepared by air drying (12 hr) inverted borosilicate tubes after two rinses with a 0.1% solution of AquaSil (Pierce, Rockford, Ill.). The GF/C glass-fiber filters (2.4 cm, Baxter, McGaw Park, Ill.) were pre-treated in a 0.1% solution of pH 7.4 polyethylenimine (Sigma Chemical Co.) for at least 6 hr.
(§6) In addition, multiple linear regression was used to calculate the overall degree of relationship between CB1 binding affinity and potency in the mouse measures for all active cannabinoids. […] Ki values for CB1 and CB2 binding were obtained from Scatchard displacement analysis as determined via EBDA program of the KELL software package (Biosoft, Milltown, N.J.).

CB1 receptor = CB1 receptor (Rattus norvegicus, UniProt P20272); assay: CB1 binding procedure: displacement of [3H]CP 55,940 from rat whole-brain P2 membranes; parameters: whole brain was homogenized and centrifuged; from tissue; host or cells: rat whole brain, P2 membrane fraction; details: for Ki: means ± SEM, [3H]CP 55,940, rat brain membranes, read-out: Ki (nM) CB1
Sequence of CB1 receptor (P20272 whole entry): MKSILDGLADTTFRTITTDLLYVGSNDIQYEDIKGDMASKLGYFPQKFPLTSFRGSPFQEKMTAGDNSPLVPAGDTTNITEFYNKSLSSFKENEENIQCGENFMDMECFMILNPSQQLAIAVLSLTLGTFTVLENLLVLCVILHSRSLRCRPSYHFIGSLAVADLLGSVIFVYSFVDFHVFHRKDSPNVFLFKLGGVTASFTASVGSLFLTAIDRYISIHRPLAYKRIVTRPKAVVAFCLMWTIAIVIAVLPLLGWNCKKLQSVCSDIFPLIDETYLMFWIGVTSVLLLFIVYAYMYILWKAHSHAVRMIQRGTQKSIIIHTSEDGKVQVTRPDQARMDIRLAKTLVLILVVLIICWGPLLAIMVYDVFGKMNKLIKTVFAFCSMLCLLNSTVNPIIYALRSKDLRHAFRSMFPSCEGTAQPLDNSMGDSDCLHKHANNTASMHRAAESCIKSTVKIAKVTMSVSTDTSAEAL
Description: as §1
The methods used for tissue preparation and binding have been described previously (Compton et al., 1993) and are similar to those described by Devane et al. (1988). All assays, as described briefly below, were performed in triplicate, and the results represent the combined data from three to six individual experiments.
Following decapitation and rapid removal of the brain, whole brain was homogenized and centrifuged. The resulting pellet was termed P1. The supernatant was saved and combined with the two subsequent supernatants obtained from washing of the P1 pellet. The combined supernatant fractions were centrifuged, resulting in the P2 pellet. After further incubation and centrifuging, this pellet was resuspended in assay buffer to a protein concentration of approximately 2 mg/ml. The membrane preparation was quickly frozen in a bath solution of dry ice and 2-methylbutane (Sigma Chemical Co., St. Louis, Mo.), then stored at −80° C. for no more than 2 weeks. Prior to performing a binding assay an aliquot of frozen membrane was rapidly thawed and protein values determined by the method of Bradford (1976).
Binding was initiated by the addition of 150 μg of P2 membrane to test tubes containing 1 nM of [^3H] CP 55,940 (79 Ci/mmol) and a sufficient quantity of buffer to bring the total incubation volume to 1 ml. Nonspecific binding was determined by the addition of 1 μM unlabeled CP 55,940. Following incubation at 30° C. for 1 hr, binding was terminated by addition of ice cold buffer and vacuum filtration through pretreated filters in a 12-well sampling manifold (Millipore, Bedford, Mass.). After washing, filters were placed into plastic scintillation vials (Packard, Downer Grove, Ill.) and shaken. The quantity of radioactivity present was determined by liquid scintillation spectrometry.
as §6

[4] = relative to the comparator analog

| Structure (SMILES) | CB1/CB2 (ratio of Ki) (CB2 receptor) | Ki (CB2 receptor) | Ki (CB1 receptor) [nM] | other results |
| --- | --- | --- | --- | --- |
| C=C(C)[C@@H]1CCC(C)=C[C@H]1c1c(C)cc(O)cc1O (single isomer, unassigned) [O-1602] |  |  |  | S.A % effect at dose, stim. (Male ICR mice [1]; Table 6, stimulation, @ 30 (mg/kg)): 66% stim.; T.F. % effect at dose (Male ICR mice [2]): 0 @ 30%; R.T. effect at dose (Male ICR mice [3]): 0.3 @ 30 °C |
| CCCCCCC(C)(C)c1cc(OC)c(C2(O)CCC(O)CC2)c(OC)c1 (single isomer, unassigned) [O-2116A] | 21 | 190 ± 17 nM | 3930 ± 483 |  |
| CCCCCCC(C)(C)c1cc(OC)c(C2(O)CCC(O)CC2)c(OC)c1 (single isomer, unassigned) [O-2117B] |  | 1560 ± 70 nM | > 10000 |  |
| CCCCCCC(C)(C)c1cc(OC)c(C2(O)CCCC(C)C2)c(OC)c1 (single isomer, unassigned; isomer 1) [O-1966A, 1-(4-(1,1-Dimethylheptyl-2,6-dimethoxy-phenyl)-3-methyl-cyclohexanol isomer 1] | 220 | 22.5 nM and 23 nM | 5060 ± 984 | CB2 selectivity (CB2 receptor): 225 fold; T.F. % effect at dose (Male ICR mice [2]): 5.1 @ 30%; R.T. effect at dose (Male ICR mice [3]): 0.5 @ 30 °C |
| CCCCCCC(C)(C)c1cc(OC)c(C2CCOCC2)c(OC)c1 [O-1964, 4-(4-(1,1-Dimethylheptyl)-2,6-dimethoxy-phenyl)-tetrahydro-pyran] |  | 911 ± 116 nM | > 10000 | fold decrease in CB2 affinity (CB2 receptor; [4]): ~2 fold; T.F. % effect at dose (Male ICR mice [2]): 30% @ 30 |
| CCCCCCC(C)(C)c1cc(OC)c(C2=CCOCC2)c(OC)c1 [O-1965, 4-(4-(1,1-Dimethylheptyl)-2,6-dimethoxy-phenyl)-3,6-dihydro-2H-pyran] |  | > 10000 nM | > 10000 |  |
| CCCCCCc1ccc(O)c(C2CCCCC2)c1O [O-2010, 2-Cyclohexyl-4-hexyl resorcinol] |  |  | 9510 ± 332 | SA percent effect at the highest dose (Male ICR mice [1]; mice, i.v., 30 mg/kg, % inhibition of activity of vehicle group): −18%(30); T.F. % effect at dose (Male ICR mice [2]): 9.0% @ 30; TF percent effect (% MPE) at the highest dose (Male ICR mice [2]; mice, i.v., 30 mg/kg): 9%(30); RT effect at the highest dose (change in rectal temperature) (Male ICR mice [3]; mice, i.v., 30 mg/kg): −0.4(30) °C; fold decrease in CB1 affinity (CB1 receptor; [4]): 865 fold |
| CCCCCCC(C)(C)c1cc(OC)c(C2(O)CCCC(C)(C)C2)c(OC)c1 (centres unmarked) [O-2068] | 47 | 161 ± 24 nM | 7510 ± 721 |  |
| CCCCCCC(C)(C)c1cc(OC)c(C2(O)CCCCC2)c(OC)c1 [O-2072] | 55 | 105 ± 19 nM | 5820 ± 662 |  |
| CCCCCCC(C)(C)c1cc(OCC)c(C2(O)CCCC(C)C2)c(OCC)c1 (centres unmarked) [O-2090] | 10 | 858 ± 43 nM | 8810 ± 422 |  |
| CCCCCCC(C)(C)c1cc(OC)c(C2(O)CCCCCC2)c(OC)c1 [O-2091, 1-(4-(1,1-Dimethylheptyl)-2,6-dimephenyl)-cycloheptan-1-ol] | 50 | 64 ± 8 nM | 3200 ± 141 | fold increase in CB2 affinity (CB2 receptor; [4]): ~2 fold |
| CCCCCCC(C)(C)c1cc(OC)c(C2(O)CCC3(CC2)OCCO3)c(OC)c1 [O-2092, 8-(4-(1,1-Dimethylheptyl)-2,6-dimphenyl)-1,4-dioxaspiro(4,5)decan-] | 36 | 126 ± 12 nM | 4580 ± 312 |  |
| CCCCCCC(C)(C)c1cc(OC)c(C2=CCC(=O)CC2)c(OC)c1 [O-2114, 4-(4-(1,1-O-methyl-heptyl)-2,6-dimethoxy-phenyl)-cyclohex-3-enone] | 5 | 1770 ± 184 nM | 8440 ± 954 |  |
| CCCCCCC(C)(C)c1cc(OC)c(C2(O)CCC(=O)CC2)c(OC)c1 [O-2115] | 13 | 346 ± 49 nM | 4570 ± 173 |  |
| CCCCCCC(C)(C)c1cc(OC)c(C2(O)CC(C)CC(O)C2)c(OC)c1 (centres unmarked) [O-2121] | 20 | 101 ± 14 nM | 1990 ± 77 |  |
| COc1cc(C)cc(OC)c1C1(O)CCCC(C)(C)C1 (centres unmarked) [O-2139, 1-(2,6-Dimethyoxy-methyl-phenyl)-3,3-dimethyl-cyclo-hexanol] |  | > 10000 nM | > 10000 |  |
